A short description of data set [1]: SUPPLEMENTARY: Lyophilisation Solubility Assay (LYSA). The format is physicochemical. Particulars: read-out: Kinetic_solubility.
The target in data set [2] is T1, Carnitine O-palmitoyltransferase 1, muscle isoform (Homo sapiens, UniProt Q92523).
T1 sequence (Q92523 whole entry): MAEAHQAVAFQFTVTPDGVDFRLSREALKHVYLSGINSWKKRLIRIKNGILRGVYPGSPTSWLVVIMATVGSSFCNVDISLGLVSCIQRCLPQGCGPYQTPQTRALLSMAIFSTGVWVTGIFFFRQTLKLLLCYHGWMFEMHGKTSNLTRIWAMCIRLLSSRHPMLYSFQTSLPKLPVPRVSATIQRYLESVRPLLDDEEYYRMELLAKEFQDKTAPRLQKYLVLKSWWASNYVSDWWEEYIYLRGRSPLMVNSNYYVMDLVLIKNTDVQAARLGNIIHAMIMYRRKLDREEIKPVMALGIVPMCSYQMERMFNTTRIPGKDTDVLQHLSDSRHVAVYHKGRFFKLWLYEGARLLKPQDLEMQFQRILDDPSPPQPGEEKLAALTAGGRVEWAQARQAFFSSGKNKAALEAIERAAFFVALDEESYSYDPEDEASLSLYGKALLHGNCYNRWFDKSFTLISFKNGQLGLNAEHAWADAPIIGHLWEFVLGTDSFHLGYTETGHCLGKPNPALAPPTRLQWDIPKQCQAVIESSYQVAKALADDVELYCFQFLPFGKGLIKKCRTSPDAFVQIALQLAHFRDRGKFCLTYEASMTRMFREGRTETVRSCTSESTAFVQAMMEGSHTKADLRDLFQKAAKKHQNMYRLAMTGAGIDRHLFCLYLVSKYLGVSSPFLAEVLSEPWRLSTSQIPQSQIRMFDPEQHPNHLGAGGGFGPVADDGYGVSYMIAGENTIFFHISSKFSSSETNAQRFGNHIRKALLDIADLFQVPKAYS
The data set can be described thus: SUPPLEMENTARY: Inhibition of Carnitine palmitoyltransferase 1, muscle isoform. On the set-up: species or system Muscle tissue.

The nature of data set [3]: SUPPLEMENTARY: Lipophilicity (log D) Determination by high-throughput shake-flask. The format is physicochemical. Particulars: octanol/water.
The target of data set [4] is T2, Carnitine O-palmitoyltransferase 2, mitochondrial (Homo sapiens, UniProt P23786).
T2 sequence (P23786 whole entry): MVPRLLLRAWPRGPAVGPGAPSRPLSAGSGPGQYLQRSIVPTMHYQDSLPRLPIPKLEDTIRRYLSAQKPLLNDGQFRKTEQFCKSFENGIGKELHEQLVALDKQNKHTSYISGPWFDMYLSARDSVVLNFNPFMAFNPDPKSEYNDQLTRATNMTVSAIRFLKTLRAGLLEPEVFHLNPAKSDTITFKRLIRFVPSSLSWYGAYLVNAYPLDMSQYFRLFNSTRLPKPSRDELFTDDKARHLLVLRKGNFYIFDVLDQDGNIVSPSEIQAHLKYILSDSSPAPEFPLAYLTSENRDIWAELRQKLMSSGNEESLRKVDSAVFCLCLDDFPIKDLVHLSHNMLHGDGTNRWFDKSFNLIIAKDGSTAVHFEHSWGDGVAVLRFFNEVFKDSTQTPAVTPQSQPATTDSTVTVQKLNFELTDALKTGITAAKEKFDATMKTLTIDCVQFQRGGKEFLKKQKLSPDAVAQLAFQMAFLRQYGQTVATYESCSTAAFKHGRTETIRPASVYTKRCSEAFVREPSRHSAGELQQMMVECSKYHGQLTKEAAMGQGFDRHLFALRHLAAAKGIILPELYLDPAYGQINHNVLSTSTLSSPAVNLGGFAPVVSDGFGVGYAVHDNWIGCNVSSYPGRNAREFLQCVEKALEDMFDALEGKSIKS
The data set can be described thus: (§1) SUPPLEMENTARY: Inhibition of Carnitine palmitoyltransferase 2.

In data set [5] the target is T3, Carnitine O-palmitoyltransferase 2, mitochondrial (Rattus norvegicus, UniProt P18886).
T3 sequence (P18886 whole entry): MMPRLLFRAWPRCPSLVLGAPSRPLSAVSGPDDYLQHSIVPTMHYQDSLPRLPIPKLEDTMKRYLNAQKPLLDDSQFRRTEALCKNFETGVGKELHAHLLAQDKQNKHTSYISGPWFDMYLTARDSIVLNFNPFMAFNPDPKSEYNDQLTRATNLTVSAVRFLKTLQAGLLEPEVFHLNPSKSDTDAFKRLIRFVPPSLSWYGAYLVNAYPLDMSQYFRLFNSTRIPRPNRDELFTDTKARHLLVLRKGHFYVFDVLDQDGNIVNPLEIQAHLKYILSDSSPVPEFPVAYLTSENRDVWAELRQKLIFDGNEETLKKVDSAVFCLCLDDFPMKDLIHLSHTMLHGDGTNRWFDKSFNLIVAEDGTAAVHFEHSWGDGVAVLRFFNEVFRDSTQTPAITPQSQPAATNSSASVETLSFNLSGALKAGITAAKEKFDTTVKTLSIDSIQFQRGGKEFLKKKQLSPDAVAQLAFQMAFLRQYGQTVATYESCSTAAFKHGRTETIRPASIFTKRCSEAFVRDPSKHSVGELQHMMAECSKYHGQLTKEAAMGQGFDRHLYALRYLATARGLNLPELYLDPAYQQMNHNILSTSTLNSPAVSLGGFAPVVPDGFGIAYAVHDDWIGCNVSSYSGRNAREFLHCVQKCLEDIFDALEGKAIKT
The description is as §1.

The target of data set [6] is T4, Carnitine O-palmitoyltransferase 1, liver isoform (Rattus norvegicus, UniProt P32198).
T4 sequence (P32198 whole entry): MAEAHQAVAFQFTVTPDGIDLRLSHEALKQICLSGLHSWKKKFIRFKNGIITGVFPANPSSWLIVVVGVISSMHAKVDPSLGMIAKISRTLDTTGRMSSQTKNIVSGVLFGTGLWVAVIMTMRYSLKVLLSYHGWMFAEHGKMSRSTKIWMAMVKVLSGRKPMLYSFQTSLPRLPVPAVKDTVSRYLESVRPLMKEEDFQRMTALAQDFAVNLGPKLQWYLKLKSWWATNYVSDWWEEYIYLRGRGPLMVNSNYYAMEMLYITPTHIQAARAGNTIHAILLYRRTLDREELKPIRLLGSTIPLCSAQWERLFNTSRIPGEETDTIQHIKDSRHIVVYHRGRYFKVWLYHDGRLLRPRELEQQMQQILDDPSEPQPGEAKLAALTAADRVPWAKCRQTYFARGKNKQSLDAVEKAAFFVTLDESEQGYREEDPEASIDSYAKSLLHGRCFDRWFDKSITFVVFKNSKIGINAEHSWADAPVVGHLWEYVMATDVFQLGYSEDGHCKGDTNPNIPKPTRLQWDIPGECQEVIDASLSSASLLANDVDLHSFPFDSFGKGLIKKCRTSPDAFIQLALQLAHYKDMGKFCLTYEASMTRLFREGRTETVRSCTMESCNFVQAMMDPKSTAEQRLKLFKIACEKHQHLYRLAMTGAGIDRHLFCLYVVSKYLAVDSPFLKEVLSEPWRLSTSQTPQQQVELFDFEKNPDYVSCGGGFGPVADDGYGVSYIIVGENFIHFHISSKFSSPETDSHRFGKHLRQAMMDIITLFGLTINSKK
Kind of data set: (§2) SUPPLEMENTARY: Inhibition of Carnitine palmitoyltransferase 1, liver isoform.

Data set [7] addresses T5, Carnitine O-palmitoyltransferase 1, liver isoform (Homo sapiens, UniProt P50416).
T5 sequence (P50416 whole entry): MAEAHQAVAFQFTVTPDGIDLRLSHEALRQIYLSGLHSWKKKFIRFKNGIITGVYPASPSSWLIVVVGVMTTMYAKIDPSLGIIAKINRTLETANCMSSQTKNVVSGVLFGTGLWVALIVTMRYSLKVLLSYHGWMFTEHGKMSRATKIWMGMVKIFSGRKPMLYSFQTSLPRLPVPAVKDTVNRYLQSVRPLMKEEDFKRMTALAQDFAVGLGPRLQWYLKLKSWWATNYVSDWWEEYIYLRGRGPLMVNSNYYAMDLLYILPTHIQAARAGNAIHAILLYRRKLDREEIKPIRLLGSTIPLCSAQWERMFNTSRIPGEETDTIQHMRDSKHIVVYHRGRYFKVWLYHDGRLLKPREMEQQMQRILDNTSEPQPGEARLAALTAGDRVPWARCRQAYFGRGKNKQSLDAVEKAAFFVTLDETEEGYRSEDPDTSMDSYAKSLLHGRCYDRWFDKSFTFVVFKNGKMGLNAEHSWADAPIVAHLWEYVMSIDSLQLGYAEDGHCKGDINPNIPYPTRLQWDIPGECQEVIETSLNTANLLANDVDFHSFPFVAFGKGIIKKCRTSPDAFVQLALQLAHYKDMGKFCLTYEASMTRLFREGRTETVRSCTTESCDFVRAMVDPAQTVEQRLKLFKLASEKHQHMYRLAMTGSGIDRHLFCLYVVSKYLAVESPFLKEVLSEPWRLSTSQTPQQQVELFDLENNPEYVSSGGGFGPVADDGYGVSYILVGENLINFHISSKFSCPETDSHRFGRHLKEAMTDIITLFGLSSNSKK
The description is as §2.

pIC50: −log10 of the molar value. In brackets after ≈: the same amount, converted by molar mass. Bounds are passed on as bounds.

On to `COc1ccc(Cl)cc1S(=O)(=O)c1c[nH]c2ccc(C(=O)Nc3nc(CC(=O)O)cs3)cc12`, for which the solubility kinetic in data set [1] was found to be 66 µg/mL (≈ 130 µM). The pIC50 (in general, −log10 of the IC50, conventionally taken in molar units) in data set [2] is 6.69; in data set [4] it was below 4.00; in data set [5], below 4.00; in data set [6], 7.72; in data set [7], 7.41. Besides, the logD (commonly lipophilicity at a set pH, counting ionised and neutral species) in data set [3] was -0.02.
Turning to `COc1ccc(Cl)cc1S(=O)(=O)c1cn(CS(C)(=O)=O)c2ccc(C(=O)Nc3ccccc3)cc12`, in data set [1], the solubility kinetic was below 1 µg/mL. Further, the pIC50 in data set [2] was below 4.00; in data set [4], below 4.00; in data set [5], below 4.00; in data set [6] it was 7.21; in data set [7], 6.95. Further, in data set [3], the pH-dependent lipophilicity (logD) is above 3.
In the case of `COc1ccc(Cl)cc1S(=O)(=O)Nc1cccc(C(=O)Nc2ccc(-c3nnn[nH]3)cc2)c1`, in data set [1], the solubility kinetic came to 25 µg/mL (≈ 51.6 µM). Further, the pIC50 in data set [2] was 6.17; in data set [4] it was below 4.00; in data set [5] it was below 4.00; in data set [6] it was 7.84; in data set [7], 7.73. In addition, the logD in data set [3] is 0.35.
For `O=C(Nc1ccc(C(=O)O)c(F)c1)c1ccc2c(c1)N(S(=O)(=O)c1ccc(Cl)c(Cl)c1)CC2`, the solubility kinetic in data set [1] amounted to 11 µg/mL (≈ 21.6 µM). Besides, the pIC50 in data set [2] is 5.39; in data set [4] it was 4.94; in data set [5], 4.65; in data set [6], 7.16; in data set [7], 6.99. In data set [3], this compound yielded a logD of 2.84.
Take `COc1ccc(Cl)cc1S(=O)(=O)c1c[nH]c2ccc(C(=O)Nc3ccc(CC(=O)O)cc3)cc12`: the solubility kinetic in data set [1] was determined as 41 µg/mL (≈ 82.2 µM). The pIC50 is 6.63 in data set [2]; below 4.00 in data set [4]; below 4.00 in data set [5]; 7.63 in data set [6]; 7.66 in data set [7]. Besides, the logD in data set [3] was 0.17.
On to `COc1ccc(Cl)cc1S(=O)(=O)N1CC[S+]([O-])c2ccc(C(=O)Nc3ccc(CC(=O)O)cc3)cc21` (configuration not stated), for which the solubility kinetic in data set [1] stood at 456 µg/mL (≈ 831 µM). Besides, the pIC50 in data set [2] was 6.59; in data set [4], below 4.00; in data set [5] it was below 4.00; in data set [6], 6.65; in data set [7], 6.66. For the same compound, the pH-dependent lipophilicity (logD) in data set [3] was -0.86.
As for `COc1ccc(Cl)cc1S(=O)(=O)c1nn(C)c2ccc(C(=O)Nc3ccccc3)cc12`, in data set [1], the solubility kinetic was below 1 µg/mL. The pIC50 was below 4.00 in data set [2]; below 4.00 in data set [4]; below 4.00 in data set [5]; 7.53 in data set [6]; 7.07 in data set [7]. The logD in data set [3] is above 3.
Consider `COc1ccc(Cl)cc1-c1csc([C@H]2CCCCN2C(=O)COc2ccccc2)n1`, for which the solubility kinetic in data set [1] is below 1 µg/mL. Moreover, the pIC50 in data set [2] is below 4.00; in data set [4], below 4.00; in data set [5], below 4.00; in data set [6], 6.12. Moreover, the logD in data set [3] was above 4.
For `COc1ccc(Cl)cc1S(=O)(=O)c1cn(CC(=O)O)c2ccc(C(=O)Nc3ccccc3)cc12`, in data set [1], the solubility kinetic is above 557 µg/mL. Also, the pIC50 is 4.95 in data set [2]; below 4.00 in data set [4]; below 4.00 in data set [5]; 8.14 in data set [6]; 7.44 in data set [7]. Also, the logD in data set [3] is -0.23.
`COc1ccc(Cl)cc1S(=O)(=O)c1cn(CSC)c2ccc(C(=O)Nc3ccccc3)cc12`: the solubility kinetic in data set [1] was below 1 µg/mL. Besides, the pIC50 in data set [2] is below 4.00; in data set [4], below 4.00; in data set [5], below 4.00; in data set [6], 7.60; in data set [7], 6.73. Also, in data set [3], the logD is above 3.
Turning to `O=C(COc1ccccc1)N1CCCC[C@@H]1c1csc(-c2n[nH]c3ccccc23)n1`, in data set [1], the solubility kinetic was below 1 µg/mL. Also, the pIC50 was 4.11 in data set [2], 5.21 in data set [4], 4.25 in data set [5] and 6.89 in data set [6]. Moreover, the logD in data set [3] was above 3.
With `COc1ccc(Cl)cc1S(=O)(=O)c1c[nH]c2ccc(C(=O)Nc3ccc(C(=O)O)cc3)cc12`, the solubility kinetic in data set [1] came out at 23 µg/mL (≈ 47.4 µM). The pIC50 was 6.28 in data set [2]; 5.71 in data set [4]; 5.29 in data set [5]; 7.69 in data set [6]; 7.76 in data set [7]. Besides, the logD in data set [3] worked out at 0.84.

Values taken from ChEMBL document CHEMBL3431459, “Roche carnitine palmitoyltransferase modulator screening data (supplementary data associated with the publication CHEMBL2216752)”.
